≈ marks a conversion by molar mass, not a printed value. Like-named read-outs stand apart in the source and are kept apart here.
Key:
Pseudomonas aeruginosa = assay: Antibacterial activity against clinically isolated strains, MIC; format: cell-based
[1] = tested on: Staphylococcus aureus methicillin susceptible; assay: as above; format: cell-based; conditions: methicillin susceptible, 42 clinical isolates, broth microdilution test; for MIC90: read-out: MIC 90%
[2] = In-vivo absorbency (plasma concentrations & pharmacokinetic parameters); set-up: species or system SD rat (male); conditions: plasma, SD male rat, iv 20 mg/kg, read-out: Plasma Conc.
[3] = tested on: Proteus mirabilis ATCC 25933; assay: Antibacterial activity, MIC; format: cell-based; conditions: ATCC25933, ATCC 25933, agar two-fold dilution, 37° C., 20 hours, read-out: MIC
In short: (§1)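 Values reflect agar dilution testing: Mueller-Hinton medium, two-fold compound series, 2 μl inoculum of 10^7 CFU/ml, 20 h incubation at 37 °C.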

[4] = tested on: Staphylococcus aureus ATCC 6538p; assay: Antibacterial activity, MIC; format: cell-based; conditions: ATCC6538P, ATCC 6538p, agar two-fold dilution, 37° C., 20 hours, read-out: MIC
In short: as §1

[5] = tested on: Bacillus cereus ATCC 11778; assay: Antibacterial activity, MIC; format: cell-based; conditions: ATCC11778, ATCC 11778, agar two-fold dilution, 37° C., 20 hours, read-out: MIC
In short: as §1

[6] = tested on: Staphylococcus aureus ATCC 10537; assay: Antibacterial activity, MIC; format: cell-based; conditions: ATCC10537, ATCC 10537, agar two-fold dilution, 37° C., 20 hours, read-out: MIC
In short: as §1

[7] = tested on: Shigella flexneri ATCC 11836; assay: Antibacterial activity, MIC; format: cell-based; conditions: ATCC11836, agar two-fold dilution, 37° C., 20 hours
In short: as §1

[8] = tested on: Enterobacter cloacae ATCC 27508; assay: Antibacterial activity, MIC; format: cell-based; conditions: ATCC27508, ATCC 27508, agar two-fold dilution, 37° C., 20 hours, read-out: MIC
In short: as §1

[9] = tested on: Staphylococcus epidermidis ATCC 12228; assay: Antibacterial activity, MIC; format: cell-based; conditions: ATCC12228, ATCC 12228, agar two-fold dilution, 37° C., 20 hours, read-out: MIC
In short: as §1

[10] = tested on: Bacillus megaterium ATCC 9885; assay: Antibacterial activity, MIC; format: cell-based; conditions: Priestia megaterium, ATCC9885; ATCC 9885; agar two-fold dilution, 37° C., 20 hours; read-out: MIC
In short: as §1

[11] = tested on: Proteus vulgaris ATCC 6059; assay: Antibacterial activity, MIC; format: cell-based; conditions: ATCC6059, ATCC 6059, agar two-fold dilution, 37° C., 20 hours, read-out: MIC
In short: as §1

[12] = tested on: Micrococcus luteus ATCC 9341; assay: Antibacterial activity, MIC; format: cell-based; conditions: ATCC9341, ATCC 9341, agar two-fold dilution, 37° C., 20 hours, read-out: MIC
In short: as §1

[13] = tested on: Enterobacter aerogenes ATCC 29751; assay: Antibacterial activity, MIC; format: cell-based; conditions: Klebsiella aerogenes, ATCC29751; ATCC 29751; agar two-fold dilution, 37° C., 20 hours; read-out: MIC
In short: as §1

[14] = tested on: Pseudomonas aeruginosa ATCC 10145; assay: Antibacterial activity, MIC; format: cell-based; conditions: ATCC10145, ATCC 10145, agar two-fold dilution, 37° C., 20 hours, read-out: MIC
In short: as §1

[15] = tested on: Serratia marcescens ATCC 27117; assay: Antibacterial activity, MIC; format: cell-based; conditions: ATCC27117, ATCC 27117, agar two-fold dilution, 37° C., 20 hours, read-out: MIC
In short: as §1

[16] = tested on: Escherichia coli ATCC 25922; assay: Antibacterial activity, MIC; format: cell-based; conditions: ATCC25922, agar two-fold dilution, 37° C., 20 hours
In short: as §1

[17] = tested on: Klebsiella pneumoniae ATCC 10031; assay: Antibacterial activity, MIC; format: cell-based; conditions: ATCC10031, ATCC 10031, agar two-fold dilution, 37° C., 20 hours, read-out: MIC
In short: as §1

[18] = tested on: Morganella morganii ATCC 8076h; assay: Antibacterial activity, MIC; format: cell-based; conditions: ATCC8076H, agar two-fold dilution, 37° C., 20 hours
In short: as §1

[19] = tested on: Acinetobacter calcoaceticus ATCC 15473; assay: Antibacterial activity, MIC; format: cell-based; conditions: ATCC15473, ATCC 15473, agar two-fold dilution, 37° C., 20 hours, read-out: MIC
In short: as §1

[20] = tested on: Shigella sonnei ATCC 11060; assay: Antibacterial activity, MIC; format: cell-based; conditions: ATCC11060, ATCC 11060, agar two-fold dilution, 37° C., 20 hours, read-out: MIC
In short: as §1

[21] = tested on: Providencia rettgeri ATCC 9250; assay: Antibacterial activity, MIC; format: cell-based; conditions: ATCC9250, agar two-fold dilution, 37° C., 20 hours
In short: as §1

[22] = tested on: Pseudomonas aeruginosa ATCC 27853; assay: Antibacterial activity, MIC; format: cell-based; conditions: ATCC27853, ATCC 27853, agar two-fold dilution, 37° C., 20 hours, read-out: MIC
In short: as §1

[23] = tested on: Salmonella typhimurium ATCC 14028; assay: Antibacterial activity, MIC; format: cell-based; conditions: Salmonella enterica; ATCC 14028; agar two-fold dilution, 37° C., 20 hours; read-out: MIC
In short: as §1

[24] = tested on: Escherichia coli ATCC 10536; assay: Antibacterial activity, MIC; format: cell-based; conditions: ATCC10536, agar two-fold dilution, 37° C., 20 hours
In short: as §1

[25] = tested on: Pseudomonas aeruginosa ATCC 25619; assay: Antibacterial activity, MIC; format: cell-based; conditions: ATCC25619, ATCC 25619, agar two-fold dilution, 37° C., 20 hours, read-out: MIC
In short: as §1

[26] = tested on: Citrobacter freundii ATCC 8090; assay: Antibacterial activity, MIC; format: cell-based; conditions: ATCC8090, ATCC 8090, agar two-fold dilution, 37° C., 20 hours, read-out: MIC
In short: as §1

Escherichia coli = assay: Antibacterial activity against clinically isolated strains, MIC; format: cell-based; conditions: 38 clinical isolates, broth microdilution test
[27] = 54 clinical isolates, broth microdilution test

SMILES: CC(O/N=C(\C(=O)NC1C(=O)N2C(C(=O)[O-])=C(CSc3nc(N)cc(N)[n+]3C)CSC12)c1csc(N)n1)C(=O)O (stereo not drawn) [Compound I-4]
- MIC90 (Pseudomonas aeruginosa): 16 µg/mL (≈ 26.2 µM)
- MIC50 (Pseudomonas aeruginosa; [27]): 4 µg/mL (≈ 6.56 µM)
- MIC50 [1]: 4 µg/mL (≈ 6.56 µM)
- MIC90 [1]: 4 µg/mL (≈ 6.56 µM)
- concentration at 1 min [2]: 64000 ng/mL
- concentration at 2.5 min [2]: 42000 ng/mL
- concentration at 5 min [2]: 32000 ng/mL
- concentration at 10 min [2]: 14000 ng/mL
- concentration at 20 min [2]: 7300 ng/mL
- concentration at 40 min [2]: 4500 ng/mL
- MIC [3]: 0.031 µg/mL (≈ 0.0508 µM)
- MIC [4]: 4 µg/mL (≈ 6.56 µM)
- MIC [5]: > 128 µg/mL
- MIC [6]: 2 µg/mL (≈ 3.28 µM)
- MIC [7]: 0.031 µg/mL (≈ 0.0508 µM)
- MIC [8]: 0.016 µg/mL (≈ 0.0262 µM)
- MIC [9]: 2 µg/mL (≈ 3.28 µM)
- MIC [10]: 1 µg/mL (≈ 1.64 µM)
- MIC [11]: 0.031 µg/mL (≈ 0.0508 µM)
- MIC [12]: 0.5 µg/mL (≈ 0.82 µM)
- MIC [13]: 1 µg/mL (≈ 1.64 µM)
- MIC [14]: 2 µg/mL (≈ 3.28 µM)
- MIC [15]: 0.063 µg/mL (≈ 0.103 µM)
- MIC [16]: 0.031 µg/mL (≈ 0.0508 µM)
- MIC [17]: 0.031 µg/mL (≈ 0.0508 µM)
- MIC [18]: ≤ 0.008 µg/mL
- MIC [19]: 4 µg/mL (≈ 6.56 µM)
- MIC [20]: 0.031 µg/mL (≈ 0.0508 µM)
- MIC [21]: ≤ 0.008 µg/mL
- MIC [22]: 1 µg/mL (≈ 1.64 µM)
- MIC [23]: 0.13 µg/mL (≈ 0.213 µM)
- MIC [24]: 0.063 µg/mL (≈ 0.103 µM)
- MIC [25]: 2 µg/mL (≈ 3.28 µM)
- MIC [26]: 0.063 µg/mL (≈ 0.103 µM)
- MIC50 (Escherichia coli): 0.031 µg/mL (≈ 0.0508 µM)
- MIC90 (Escherichia coli): 0.063 µg/mL (≈ 0.103 µM)

SMILES: CCO/N=C(\C(=O)NC1C(=O)N2C(C(=O)[O-])=C(CSc3nc(N)cc(N)[n+]3N)CSC12)c1csc(N)n1 (stereo not drawn) [Compound I-16]
- MIC90 (Pseudomonas aeruginosa): 16 µg/mL (≈ 28.2 µM)
- MIC50 (Pseudomonas aeruginosa; [27]): 4 µg/mL (≈ 7.06 µM)
- MIC50 [1]: 0.25 µg/mL (≈ 0.441 µM)
- MIC90 [1]: 0.25 µg/mL (≈ 0.441 µM)
- concentration at 1 min [2]: 149000 ng/mL
- concentration at 2.5 min [2]: 106000 ng/mL
- concentration at 5 min [2]: 79000 ng/mL
- concentration at 10 min [2]: 52000 ng/mL
- concentration at 20 min [2]: 32000 ng/mL
- concentration at 40 min [2]: 13000 ng/mL
- MIC [3]: 0.13 µg/mL (≈ 0.229 µM)
- MIC [4]: 0.25 µg/mL (≈ 0.441 µM)
- MIC [5]: 4 µg/mL (≈ 7.06 µM)
- MIC [6]: 0.25 µg/mL (≈ 0.441 µM)
- MIC [7]: 0.016 µg/mL (≈ 0.0282 µM)
- MIC [8]: 0.016 µg/mL (≈ 0.0282 µM)
- MIC [9]: 0.063 µg/mL (≈ 0.111 µM)
- MIC [10]: 0.063 µg/mL (≈ 0.111 µM)
- MIC [11]: 0.13 µg/mL (≈ 0.229 µM)
- MIC [12]: 0.016 µg/mL (≈ 0.0282 µM)
- MIC [13]: 0.25 µg/mL (≈ 0.441 µM)
- MIC [14]: 4 µg/mL (≈ 7.06 µM)
- MIC [15]: 0.13 µg/mL (≈ 0.229 µM)
- MIC [16]: 0.063 µg/mL (≈ 0.111 µM)
- MIC [17]: ≤ 0.008 µg/mL
- MIC [18]: ≤ 0.008 µg/mL
- MIC [19]: 4 µg/mL (≈ 7.06 µM)
- MIC [20]: 0.063 µg/mL (≈ 0.111 µM)
- MIC [21]: ≤ 0.008 µg/mL
- MIC [22]: 2 µg/mL (≈ 3.53 µM)
- MIC [23]: 0.25 µg/mL (≈ 0.441 µM)
- MIC [24]: 0.063 µg/mL (≈ 0.111 µM)
- MIC [25]: 0.5 µg/mL (≈ 0.882 µM)
- MIC [26]: 0.063 µg/mL (≈ 0.111 µM)
- MIC50 (Escherichia coli): 0.13 µg/mL (≈ 0.229 µM)
- MIC90 (Escherichia coli): 0.25 µg/mL (≈ 0.441 µM)

SMILES: CC[n+]1c(N)cc(N)nc1SCC1=C(C(=O)[O-])N2C(=O)C(NC(=O)/C(=N\OC(C)(C)C(=O)O)c3csc(N)n3)C2SC1 (stereo not drawn) [Compound I-2]
- MIC50 (Pseudomonas aeruginosa; [27]): 2 µg/mL (≈ 3.14 µM)
- MIC90 (Pseudomonas aeruginosa; 54 clinical isolates, broth microdilution test, read-out: MIC 90%): 4 µg/mL (≈ 6.27 µM)
- MIC50 [1]: 2 µg/mL (≈ 3.14 µM)
- MIC90 [1]: 2 µg/mL (≈ 3.14 µM)
- concentration at 1 min [2]: 55000 ng/mL
- concentration at 2.5 min [2]: 33000 ng/mL
- concentration at 5 min [2]: 22000 ng/mL
- concentration at 10 min [2]: 14000 ng/mL
- concentration at 20 min [2]: 7300 ng/mL
- concentration at 40 min [2]: 4500 ng/mL
- MIC [3]: 0.031 µg/mL (≈ 0.0486 µM)
- MIC [4]: 2 µg/mL (≈ 3.14 µM)
- MIC [5]: 64 µg/mL (≈ 100 µM)
- MIC [6]: 2 µg/mL (≈ 3.14 µM)
- MIC [7]: 0.031 µg/mL (≈ 0.0486 µM)
- MIC [8]: 0.031 µg/mL (≈ 0.0486 µM)
- MIC [9]: 1 µg/mL (≈ 1.57 µM)
- MIC [10]: 0.5 µg/mL (≈ 0.784 µM)
- MIC [11]: 0.031 µg/mL (≈ 0.0486 µM)
- MIC [12]: 0.25 µg/mL (≈ 0.392 µM)
- MIC [13]: 2 µg/mL (≈ 3.14 µM)
- MIC [14]: 2 µg/mL (≈ 3.14 µM)
- MIC [15]: 0.13 µg/mL (≈ 0.204 µM)
- MIC [16]: 0.063 µg/mL (≈ 0.0988 µM)
- MIC [17]: 0.063 µg/mL (≈ 0.0988 µM)
- MIC [18]: ≤ 0.008 µg/mL
- MIC [19]: 4 µg/mL (≈ 6.27 µM)
- MIC [20]: 0.063 µg/mL (≈ 0.0988 µM)
- MIC [21]: ≤ 0.008 µg/mL
- MIC [22]: 1 µg/mL (≈ 1.57 µM)
- MIC [23]: 0.25 µg/mL (≈ 0.392 µM)
- MIC [24]: 0.063 µg/mL (≈ 0.0988 µM)
- MIC [25]: 1 µg/mL (≈ 1.57 µM)
- MIC [26]: 0.13 µg/mL (≈ 0.204 µM)
- MIC50 (Escherichia coli): 0.063 µg/mL (≈ 0.0988 µM)
- MIC90 (Escherichia coli): 0.13 µg/mL (≈ 0.204 µM)

Source: patent publication US5202315A, “Cephalosporin compounds” (Lucky, Ltd., priority 1989, dated 1993)
